Experimental data published in article PMC6584114, “Metabolism of IMM-H004 and Its Pharmacokinetic-Pharmacodynamic Analysis in Cerebral Ischemia/Reperfusion Injured Rats” (Frontiers in Pharmacology, 2019).

How the values were obtained:
MCAO/R rats = test: Neuroprotection in transient MCAO/R rats (infarct volume, neurological score); format: in vivo, rat; settings: 10 mg/kg iv after reperfusion, 24 h, vs model
Excerpt: Transient MCAO/R was applied to compare the neuroprotection of IMM-H004 and IMM-H004G. Rats were fasted overnight with free access to water and randomly assigned to different groups. Rats were anesthetized with a mixture of 5% isoflurane and 95% oxygen and maintained with a mixture of 3% isoflurane and 97% oxygen during the surgical procedure. A 4-0 nylon thread, the tip of which was burned (diameter 0.36 mm), was inserted into the right internal carotid artery and advanced until the origin of the right MCA was occluded. After 60 min of the occlusion, the thread was withdrawn to allow reperfusion, and then the rats were returned to the chamber. Saline or edaravone at dose of 6 mg/kg or IMM-H004 citrate and IMM-H004G at dose of 10 mg/kg (dissolved in saline to yield a concentration of 2 mg/ml) were administered by intravenous injection immediately after reperfusion.
The rats were assessed for neurologic deficits at 24 h after reperfusion according to Zea Longa’s five-point scale. […] The animals without symptoms of neurological impairment or dying after the surgery were rejected. All animals were killed 24 h after reperfusion. Brains of the animals were removed and cut into 2 mm-thick slices, for a total of six slices per animal. The slices were immersed in a 2% solution of 2,3,5-triphenyltetrazolium chloride in phosphate buffered saline at 37°C for 20 min and then fixed in 4% formaldehyde overnight. Images of the slices were obtained with a scanner and a computer. The infarct area and the total area were calculated by tracing the areas on the computer screen with Image J. The percentage of the infarct volume was expressed as the infarct volumes (white parts)/the whole volume of the cortex.

PC12 cells = test: Neuroprotection in oxygen-glucose deprivation injured PC12 cells (MTT cell viability); format: cell-based; settings: 1 and 10 μM, 24 h, MTT, vs model group
Experimental: The neuroprotective activity of IMM-H004 and IMM-H004G was evaluated on PC12 cells damaged by oxygen-glucose deprivation (OGD). PC12 cells were purchased from the American Type Culture Collection. Cultures were maintained at 37°C in 5% CO2 in a humidified incubator. For cell viability assay, PC12 cells were incubated in 96-well plates at a density of 5 × 10^4/ml for 24 h. In the sham group, PC12 cells were cultured in Dulbecco’s modified eagle medium supplemented with 5% fetal bovine serum and 5% equine serum (Gibco, USA). In the OGD group, PC12 cells were cultured in glucose-free Earle’s balanced salt solution supplemented with 15 mM Na2S2O4 for 2 h and then incubated with compounds of nerve growth factor (NGF, 10 μM), edaravone (10 μM, 50 μM), IMM-H004 (1 μM, 10 μM), and IMM-H004G (1 μM, 10 μM), respectively. After 24 h of incubation, MTT (5 mg/ml) was added into the cell cultures and incubated for an additional 4 h. Then the supernatant was removed and 100 μL DMSO was added. Absorbance was measured using an Ultramark microplate reader at a wavelength of 562 nm. The cell viability was expressed as a percentage of the absorbance density value of control cultures.

[1] = test system: plasma malondialdehyde (MDA); test: Plasma MDA suppression (PD) in MCAO/R rats; format: in vivo, rat; settings: iv IMM-H004 citrate 10 mg/kg after reperfusion
Experimental: The plasma pharmacokinetics (PK) and pharmacodynamics (PD) of IMM-H004 and IMM-H004G were investigated in a cerebral ischemia-reperfusion rat model produced by middle cerebral artery occlusion/reperfusion (MCAO/R) after iv administration of IMM-H004. In brief, rats underwent a 1-h MCAO and then received IMM-H004 citrate (10 mg/kg, dissolved in saline to yield a concentration of 2 mg/ml) immediately after reperfusion, an effective dosing time as reported ([Zuo et al., 2015]; [Yang et al., 2017]). For sham surgery, all the arteries were exposed for the surgical period, but the filament was not inserted into the MCA. Blood samples were collected through external jugular vein cannula into heparinized tubes at 0.033, 0.167, 0.5, 1, 2, 4, 6, 8, 12, 24, 36, and 48 h postdose for IMM-H004 and IMM-H004G detection (50 μL of blood at each time point) and at 0.5, 1, 2, 4, 7, and 10 h postdose for malondialdehyde (MDA) detection (80 μL of blood at each time point). Plasma was immediately separated by centrifugation at 900×g for 5 min. Plasma concentrations of IMM-H004 and IMM-H004G in ischemia-reperfusion rats were determined by LC-MS/MS analysis. The PK parameters were calculated by noncompartmental analysis using WinNonlin Version 6.1 (Pharsight, Mountain View, CA). Plasma MDA concentrations in ischemia-reperfusion and sham rats within 24 h were estimated by enzyme-linked immunosorbent assay.

[2] = test system: rat liver microsomes (RLMs), UGT; test: Kinetics of IMM-H004G formation (glucuronidation) in UDPGA-supplemented rat liver microsomes; format: in vitro ADME; settings: substrate IMM-H004
Experimental: To explore glucuronidation difference of IMM-H004 between humans and rats, the kinetics of IMM-H004G formation in UDPGA-supplemented HLMs and RLMs were determined. The incubation mixtures consisted of HLMs or RLMs (0.025 mg protein/ml), alamethicin (50 μg/mg protein), IMM-H004 (0.5–2,500 μM), and UDPGA (5 mM) in a final volume of 0.2 ml Tris-HCl buffer (50 mM, pH 7.4) containing 5 mM MgCl2. HLM or RLM was preincubated with alamethicin on ice for 15 min. The reaction was incubated at 37°C for 10 min and quenched by adding 200 μL of ice-cold acetonitrile containing IS (100 ng/ml). After vortex-mixing and centrifugation, IMM-H004G in the supernatant was analyzed by LC-MS/MS.
The LC-MS/MS system consisted of Shimadzu 30A UPLC and API 4000 triple quadruple mass spectrometer (AB SCIEX, USA). Data acquisition and analysis were accomplished using Analyst 1.5.2 software. The analytes and IS were chromatographed by injection of 1 μL sample. The mobile phases consisted of solvent A (0.5% formic acid in water) and solvent B (0.5% formic acid in methanol) at a flow rate of 0.3 ml/min on an Eclipse Plus C18 column (2.1 mm × 50 mm, 3.5 μm, Agilent, USA), and the operating temperature was 40°C. […] The specific transitions monitored were 305→248 for IMM-H004, 291→234 for M1, 291→248 for M2, 481→305 for IMM-H004G, 385→305 for M4, and 260→183 for IS.

`COc1cc(O)cc2oc(=O)c(N3CCN(C)CC3)c(C)c12` [IMM-H004, 7-hydroxy-5-methoxy-4-methyl-3-(4-methylpiperazin-1-yl)-coumarin] was tested, and the infarct volume (MCAO/R rats) was “markedly reduced (p < 0.01)”, the neurological test score (MCAO/R rats) was “significant improvement (p < 0.01)” and the “cell viability of OGD-injured PC12 cells” value (PC12 cells) was “significant (p < 0.05) preservation of viability”. For the same molecule, the “duration of plasma MDA lowering after administration” value [1] was “at least 10 h”, the “effect on plasma MDA level” value ([1]; vs MCAO/R group) was “significantly lower the increased MDA level at 2 h” and the “K m of IMM-H004G formation (glucuronidation)” value [2] was 9.5 µM. The “V max of IMM-H004G formation (glucuronidation)” value [2] was 5.04 nmol/min/mg protein.
